Calls of active or inactive are those of the source. The rule behind the calls is not given here.
Tests used:
[1] = target: T1, Histone-lysine N-methyltransferase 2A/WDR5 (Homo sapiens) (UniProt P61964+Q03164); experiment: Inhibition of MLL1-WDR5 interaction in human MV4-11 cells assessed as downregulation of Meis1 gene expression at 10 uM incubated for 6 days by qRT-PCR analysis relative to control; format: cell-based; conditions: time 6.0 day
MV4-11 [2] = experiment: Induction of apoptosis in human MV4-11 cells harboring MLL1-AF4 assessed as necrotic cells at 5 uM incubated for 72 hrs by annexin V-FITC and propidium iodide staining based assay (reference value: 0.05 %); format: functional
MV4-11 [3] = experiment: Antiproliferative activity against human MV4-11 cells harboring MLL1-AF4; format: functional
MV4-11 [4] = experiment: Induction of apoptosis in human MV4-11 cells harboring MLL1-AF4 assessed as viable cells at 5 uM incubated for 72 hrs by annexin V-FITC and propidium iodide staining based assay (reference value: 93.75 %); format: functional; conditions: read-out: Activity
[5] = target: T1, Histone-lysine N-methyltransferase 2A/WDR5 (Homo sapiens); experiment: Inhibition of MLL1-WDR5 interaction in human MV4-11 cells assessed as downregulation of Hoxa9 gene expression incubated for 6 days by qRT-PCR analysis; format: cell-based; conditions: dose 1-20 µM, time 6.0 day
[6] = target: T1, Histone-lysine N-methyltransferase 2A/WDR5 (Homo sapiens); experiment: Inhibition of MLL1-WDR5 interaction in human MV4-11 cells assessed as reduction in H3K4me1 expression incubated for 6 days by Western blot analysis; format: cell-based; conditions: dose 0.1-20 µM, time 6.0 day
MV4-11 [7] = experiment: Induction of apoptosis in human MV4-11 cells harboring MLL1-AF4 assessed as early apoptotic cells at 10 uM incubated for 72 hrs by annexin V-FITC and propidium iodide staining based assay (reference value: 4.35 %); format: functional
MV4-11 [8] = experiment: Induction of apoptosis in human MV4-11 cells harboring MLL1-AF4 assessed as viable cells at 10 uM incubated for 72 hrs by annexin V-FITC and propidium iodide staining based assay (reference value: 93.75 %); format: functional; conditions: read-out: Activity
[9] = target: T1, Histone-lysine N-methyltransferase 2A/WDR5 (Homo sapiens); experiment: Inhibition of MLL1-WDR5 interaction in human MV4-11 cells assessed as downregulation of Meis1 gene expression incubated for 6 days by qRT-PCR analysis; format: cell-based; conditions: dose 1-20 µM, time 6.0 day
MV4-11 [10] = experiment: Induction of apoptosis in human MV4-11 cells harboring MLL1-AF4 assessed as necrotic cells at 10 uM incubated for 72 hrs by annexin V-FITC and propidium iodide staining based assay (reference value: 0.05 %); format: functional
MV4-11 [11] = experiment: Induction of apoptosis in human MV4-11 cells harboring MLL1-AF4 incubated for 72 hrs by annexin V-FITC and propidium iodide staining based assay; format: functional, cell-based; conditions: dose 5-25 µM
MV4-11 [12] = experiment: Induction of apoptosis in human MV4-11 cells harboring MLL1-AF4 assessed as late apoptotic cells at 10 uM incubated for 72 hrs by annexin V-FITC and propidium iodide staining based assay (reference value: 1.85 %); format: functional
[13] = Cytotoxicity against human L02 cells; format: cell-based
MV4-11 [14] = experiment: Induction of apoptosis in human MV4-11 cells harboring MLL1-AF4 assessed as early apoptotic cells at 5 uM incubated for 72 hrs by annexin V-FITC and propidium iodide staining based assay (reference value: 4.35 %); format: functional
K562 = experiment: Antiproliferative activity against human K562 cells harboring MLL1; format: functional
MV4-11 [15] = experiment: Induction of apoptosis in human MV4-11 cells harboring MLL1-AF4 assessed as necrotic cells at 25 uM incubated for 72 hrs by annexin V-FITC and propidium iodide staining based assay (reference value: 0.05 %); format: functional
[16] = target: Histone-lysine N-methyltransferase 2A/WDR5 (Homo sapiens, UniProt P61964); experiment: Inhibition of MLL1-WDR5 interaction […] assessed as reduction in MLL1 binding to WDR5 WIN site by 5-FAM probe based fluorescence polarization assay
[17] = target: T1, Histone-lysine N-methyltransferase 2A/WDR5 (Homo sapiens); experiment: Inhibition of MLL1-WDR5 interaction in human MV4-11 cells assessed as downregulation of Hoxa9 gene expression at 10 uM incubated for 6 days by qRT-PCR analysis relative to control; format: cell-based; conditions: time 6.0 day
MV4-11 [18] = experiment: Induction of apoptosis in human MV4-11 cells harboring MLL1-AF4 assessed as viable cells at 25 uM incubated for 72 hrs by annexin V-FITC and propidium iodide staining based assay (reference value: 93.75 %); format: functional; conditions: read-out: Activity
MV4-11 [19] = experiment: Induction of apoptosis in human MV4-11 cells harboring MLL1-AF4 assessed as early apoptotic cells at 25 uM incubated for 72 hrs by annexin V-FITC and propidium iodide staining based assay (reference value: 4.35 %); format: functional
[20] = target: T1, Histone-lysine N-methyltransferase 2A/WDR5 (Homo sapiens); experiment: Inhibition of MLL1-WDR5 interaction in human MV4-11 cells assessed as reduction in H3K4me2 expression incubated for 6 days by Western blot analysis; format: cell-based; conditions: dose 0.1-20 µM, time 6.0 day
MOLM-13 = experiment: Antiproliferative activity against human MOLM-13 cells harboring MLL1-AF9; format: functional
MV4-11 [21] = experiment: Induction of apoptosis in human MV4-11 cells harboring MLL1-AF4 assessed as late apoptotic cells at 5 uM incubated for 72 hrs by annexin V-FITC and propidium iodide staining based assay (reference value: 1.85 %); format: functional
[22] = Cytotoxicity against HUVEC cells; format: cell-based; conditions: human
MV4-11 [23] = experiment: Induction of apoptosis in human MV4-11 cells harboring MLL1-AF4 assessed as late apoptotic cells at 25 uM incubated for 72 hrs by annexin V-FITC and propidium iodide staining based assay (reference value: 1.85 %); format: functional
[24] = target: T1, Histone-lysine N-methyltransferase 2A/WDR5 (Homo sapiens); experiment: Inhibition of MLL1-WDR5 interaction in human MV4-11 cells assessed as reduction in H3K4me2 expression at 5 uM incubated for 6 days by Western blot analysis; format: cell-based; conditions: time 6.0 day
[25] = target: T1, Histone-lysine N-methyltransferase 2A/WDR5 (Homo sapiens); experiment: Inhibition of MLL1-WDR5 interaction in human MV4-11 cells assessed as downregulation of Meis1 gene expression at 5 uM incubated for 6 days by qRT-PCR analysis; format: cell-based; conditions: time 6.0 day
[26] = target: T1, Histone-lysine N-methyltransferase 2A/WDR5 (Homo sapiens); experiment: Inhibition of MLL1-WDR5 interaction in human MV4-11 cells assessed as downregulation of Hoxa9 gene expression at 5 uM incubated for 6 days by qRT-PCR analysis; format: cell-based; conditions: time 6.0 day
[27] = target: T1, Histone-lysine N-methyltransferase 2A/WDR5 (Homo sapiens); experiment: Inhibition of MLL1-WDR5 interaction in human MV4-11 cells assessed as reduction in H3K4me1 expression at 5 uM incubated for 6 days by Western blot analysis; format: cell-based; conditions: time 6.0 day

Row | IC50 [16] | Structure (SMILES) | GI50 (MV4-11 [3]) | GI50 [13] | GI50 (K562) | GI50 (MOLM-13) | GI50 [22] | further results
1 | > 100 µM | COc1c(C)cnc(C[S+]([O-])c2nc3ccccc3s2)c1C (stereo unspecified) |  |  |  |  |  | 
2 | 1.8 µM | COc1ccc2nc([S@@+]([O-])Cc3ncc(C)c(OC)c3C)[nH]c2c1 [ESOMEPRAZOLE] | 47.6 µM | > 100 µM | > 100 µM | 32 µM | > 100 µM | 
3 | 1.7 µM | COc1ccc2[nH]c([S+]([O-])Cc3ncc(C)c(OC)c3C)nc2c1 (stereo unspecified) [OMEPRAZOLE] | 37.3 µM | > 100 µM | > 100 µM | 34.1 µM | > 100 µM | 
4 | > 100 µM | COc1c(C)cnc(CSc2nc3ccccc3[nH]2)c1C |  |  |  |  |  | 
5 | 1.1 µM | COc1c(C)cnc(C[S+]([O-])c2nc3ccccc3[nH]2)c1C (stereo unspecified) |  |  |  |  |  | 
6 | > 100 µM | Cc1cccnc1C[S+]([O-])c1nc2ccccc2[nH]1 (stereo unspecified) |  |  |  |  |  | 
7 | > 100 µM | COc1c(C)cnc(C[S+]([O-])c2nc3ccccc3o2)c1C (stereo unspecified) |  |  |  |  |  | 
8 | 1.7 µM | COCCCOc1ccnc(C[S+]([O-])c2nc3cc(OC(F)F)ccc3[nH]2)c1C (stereo unspecified) |  |  |  |  |  | 

Continued, compound first:

Row | Structure (SMILES) | IC50 [16] | GI50 (MV4-11 [3]) | GI50 [13] | GI50 (K562) | GI50 (MOLM-13) | GI50 [22] | further results
9 | COCCCOc1ccnc(C[S+]([O-])c2nc3ccccc3[nH]2)c1C (stereo unspecified) [RABEPRAZOLE] | 0.49 µM | 14.1 µM | > 100 µM | > 100 µM | 17.5 µM | > 100 µM | inhibition [1]: 50%; Activity (MV4-11 [2]): 0.2%; viability at 5 µM (MV4-11 [4]): 86.4%; inhibition [5]: Dose-dependent effect; inhibition [6]: Dose-dependent effect; Activity (MV4-11 [7]): 4.75%; viability at 10 µM (MV4-11 [8]): 86.2%; inhibition [9]: Dose-dependent effect; Activity (MV4-11 [10]): 0.3%; Activity (MV4-11 [11]): Dose-dependent effect; Activity (MV4-11 [12]): 8.7%; Activity (MV4-11 [14]): 7.75%; Activity (MV4-11 [15]): 0.8%; inhibition [17]: 50%; viability at 25 µM (MV4-11 [18]): 76.3%; Activity (MV4-11 [19]): 6.4%; inhibition [20]: Dose-dependent effect; Activity (MV4-11 [21]): 5.65%; Activity (MV4-11 [23]): 16.5%
10 | Cc1c(OCC(F)(F)F)ccnc1C[S+]([O-])c1nc2ccccc2[nH]1 (stereo unspecified) [LANSOPRAZOLE] | 5.9 µM | 21.1 µM | > 100 µM | > 100 µM | 30.1 µM | > 100 µM | 
11 | Cc1ccccc1C[S+]([O-])c1nc2ccccc2[nH]1 (stereo unspecified) | > 100 µM |  |  |  |  |  | 
12 | Cc1c(F)c(N)cc(C(=O)Nc2cc(-c3ccc(N)cc3)ccc2N2CCN(C)CC2)c1Cl |  |  |  |  |  |  | inhibition [24]: Active; inhibition [25]: Active; inhibition [26]: Active; inhibition [27]: Active
13 | COCCCOc1ccnc(CS(=O)(=O)c2nc3cc(OC(F)F)ccc3[nH]2)c1 | > 100 µM |  |  |  |  |  | 
14 | Cc1c(OCC(F)(F)F)ccnc1C[S@@+]([O-])c1nc2ccccc2[nH]1 [DEXLANSOPRAZOLE] | 5.7 µM | 25.1 µM | > 100 µM | > 100 µM | 27.2 µM | > 100 µM | 
